PubChem BioAssay (NCI)
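Here, GI50 denotes the concentration required for 50% inhibition of growth. TGI denotes the concentration required for complete inhibition of growth.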

Tests used:
Assay in all cases: NCI-60 cell line screen, 384-well format
[1] = system: NCI-H226 lung
[2] = system: MDA-MB-435 melanoma
[3] = system: A498 renal
[4] = system: UO-31 renal
[5] = system: HCT-15 colon
[6] = system: SF-295 CNS
[7] = system: MOLT-4 leukemia
[8] = system: TK-10 renal
[9] = system: HCC-2998 colon
[10] = system: U251 glioblastoma
[11] = system: ACHN renal
[12] = system: MDA-MB-468 breast
[13] = system: IGROV1 ovarian

Structure (SMILES)	GI50 [1] [µM]	TGI [1] [µM]	GI50 [2] [µM]	TGI [2] [µM]	GI50 [3] [µM]	TGI [3] [µM]	GI50 [4] [µM]	TGI [4] [µM]	GI50 [5] [µM]	TGI [5] [µM]	GI50 [6] [µM]	TGI [6] [µM]	GI50 [7] [µM]	TGI [7] [µM]	GI50 [8] [µM]	TGI [8] [µM]	GI50 [9] [µM]	TGI [9] [µM]	GI50 [10] [µM]	TGI [10] [µM]	other results
Cc1nc2ccc(-n3ncc(C(=O)c4cc5ccccc5[nH]4)c3N)cc2[nH]1	5.45	29.5	11.2	42.9	12.4	33.5	7.35	34.5	1.56	13.4	10.4	26.9	1.93	5	4.78	20.5	13.1	30.8	6.53	25.5	GI50 [11]: 8.92 µM; TGI [11]: 48.5 µM; GI50 [12]: 4.15 µM; TGI [12]: 16.7 µM; GI50 [13]: 6 µM; TGI [13]: 22.8 µM
CC(C)n1cc(-c2ccc3c(c2)N(C)CC3)c2c(NS(=O)(=O)c3ccn(C)n3)ccnc21	> 96.1	> 100	> 93	> 100	85.7	> 100	78.6	> 100	90.6	> 100	37	> 91.2	39.1	> 100	> 100	> 100	> 100	> 100	87.1	> 100	GI50 [11]: > 100 µM; TGI [11]: > 100 µM; GI50 [12]: 56.8 µM; TGI [12]: > 100 µM; GI50 [13]: > 74.4 µM; TGI [13]: > 100 µM
